Series [1] relates to Bacillus pumilus spores (ATCC 27142). Particulars: 150 ppm H2O2, CO2 39° C., 100 bar, continuous flow 10 g/min, 15 minutes; 10^6 spores.
Description: Mask cutouts (4 cm 2) were inoculated with 10^6 spores contained in 100 μL of aqueous solution. The samples were placed inside sterilization bags and heat-sealed to be placed in a 600 mL stainless steel autoclave (Novagenesis, Novasterilis Inc.) provided with lower mechanical agitation. H2O2 was added as an additive at the bottom of the autoclave to avoid direct contact with the masks at a content of 150 ppm. The system is heated to 39° C. and pressurized with a CO2 flow to reach 100 bar. A continuous flow of CO2 of 0 to 10 g/min through the autoclave was maintained for a period of 15 minutes. Subsequently, the system is depressurized to reach atmospheric pressure at a rate of 14.3 bar/min.
The effectiveness of the sterilization method was evaluated by sowing tryptone-soybean agar culture medium and subsequent counting of formed colonies.
Series [2] can be described thus: X-ray diffraction and infrared spectrum after treatment. Particulars: 1200 ppm hydrogen peroxide, supercritical CO2 39° C., 140 bar, 2.5 and 2.5 hours; versus untreated. The format is physicochemical. The method, then:
FIG. 4. X-ray diffraction spectrum (A) and infrared spectrum (B) of vancomycin hydrochloride i) untreated and (ii) after addition of 1200 ppm hydrogen peroxide and processing with supercritical CO2 at 39° C., 140 bar during batch stages and continuous compressed CO2 flux for 2.5 and 2.5 hours, respectively. Caption: vancomycin untreated hydrochloride (black), vancomycin treated hydrochloride (gray)

Counter-ions that a name gives are not always drawn.

Consider `OO` [Test H2O2, hydrogen peroxide], for which the “sterility level reached on FFP3 mask cutouts” value in series [1] is on record as “SAL-6”.

Take `CN[C@H](CC(C)C)C(=O)N[C@H]1C(=O)N[C@@H](CC(N)=O)C(=O)N[C@H]2C(=O)N[C@H]3C(=O)N[C@H](C(=O)N[C@H](C(=O)O)c4cc(O)cc(O)c4-c4cc3ccc4O)[C@H](O)c3ccc(c(Cl)c3)Oc3cc2cc(c3O[C@@H]2O[C@H](CO)[C@@H](O)[C@H](O)[C@H]2O[C@H]2C[C@](C)(N)[C@H](O)[C@H](C)O2)Oc2ccc(cc2Cl)[C@H]1O` [Vancomycin hydrochloride, vancomycin hydrochloride]: in series [2], the “crystalline form after treatment” value is “not altered”.
